Measured values: patent publication US20240228469A1, “PCSK9 INHIBITORS AND METHODS OF USE THEREOF” (AstraZeneca AB, priority 2022, published 2024)

Assays:
PCSK9 [1] = target: T1, PCSK9 (Homo sapiens, UniProt Q8NBP7, G670E/V474I); experiment: biochemical
PCSK9 [2] = target: PCSK9 (Homo sapiens, UniProt Q8NBP7); experiment: Assay 2 Biophysical human PCSK9 assay (SPR, Biacore); assay type: binding; design: biotinylated human PCSK9 (31-692)-Avi-His6; His6 (C); settings: single-cycle kinetics, 30° C., geometric mean, read-out: Assay 2 (PCSK9 BIAcore DBA Cr) GMean Kd
Protocol: The SPR binding experiments were performed on a Biacore S200 optical biosensor unit at 30° C. A Series S Sensor Chip SA that is designed to bind biotinylated molecules for interaction analysis in Biacore systems was equilibrated at room temperature prior to use. The running buffer for protein tethering and subsequent ligand binding experiments was 10 mM HEPES pH 7.4, 150 mM NaCl, 0.05% (v/v) Tween 20 pH 7.4.
For the surface tethering of PCSK9, biotinylated human PCSK9 (31-692)-Avi-His6 at a concentration of 0.5 mg/mL was used. Prior to the surface tethering, the surface was exposed to a solution of 50 mM NaOH, 500 mM NaCl via 3 consecutive injections of this solution with a contact time of 60 s and a flowrate of 10 μL min^−1 to remove non-conjugated streptavidin. The PCSK9 protein was diluted to a concentration of 20 μg/mL using running buffer and injected with a contact time of 180-300 s and a flowrate of 10 μL min^−1 over a single flow channel (typically flow channel 2 or flow channel 4) with the aim to achieve protein capture levels of >5000 response units (RU). Remaining biotin binding sites were blocked via 2 consecutive injections of a 10 μM D-biotin solution in running buffer with a contact time of 60 s and a flowrate of 10 μL min^−1 over all flow-channels. Flow-channels 1 and 3 typically served as a reference surface throughout the subsequent binding experiments.
The binding experiments were all performed at a flow rate of 30 PL min^−1 and by employing the method of single-cycle kinetics. This approach involves the sequential injection of a compound concentration series without regeneration steps. A contact time between 90-150 s was selected, which was followed by a 40 min dissociation phase to allow for a proper estimation of the dissociation rate constant. Test compounds were delivered in DMSO at a concentration of 10 mM and a digital dispenser HP D300 was used to set up the compound concentration series using 6 concentrations. The tested concentrations have been 30, 100, 300, 1000, 3000 and 10000 nM. Prior to injecting any compound, the surfaces were equilibrated by injecting running buffer over them in three separate pulses. The data collection rate was set to 10 Hz.
The raw sensorgrams of the compound injections were first subjected to reference subtraction (subtracting the signal from flow channel 1 and/or 3 from the signal from channels 2 and/or 4 respectively) and then blank subtraction (subtracting the signal from injecting DMSO controls from the reference subtracted data). The resulting double-referenced sensorgrams were then fitted using a 1:1 binding interaction model using the manufactures software package to extract kinetic- and affinity data. Active compounds have been defined by creating a detectable binding signal at the highest compound concentration ([…]) of 3 RUs. Kinetic- and affinity data on active compounds are only provided for those compounds where the binding signal at the highest compound concentration ([…]) is 50% of the theoretical maximum binding signal for a 1:1 binding interaction (Rmax, typically between 15-20 RUs) in order to enable a proper fitting of the data.

PCSK9 [3] = target: T1, PCSK9; experiment: Assay 3 PCSK9 LDL-C uptake assay in HepG2 cells; assay type: cell-based; design: TEV site (C); His6 (C); host or cells: added to HepG2 (ATCC #HB-8065); settings: 125 nM PCSK9, pHrodo Red-LDL, read-out: Assay 3 LDL uptake potency
In short: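 HepG2 cells were plated for 24 h, then exposed for 24 h at 37 °C to compounds (half-log series, 10 μM top) with 125 nM exogenous PCSK9. pHrodo Red-LDL ([…]) uptake was then imaged by fluorescence at 4 h and 24 h. Signal was normalized as % effect between DMSO and 100 nM evolocumab, with a four-parameter logistic fit.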

T1 sequence (Q8NBP7 with tags, fused parts or gaps V474I/G670E): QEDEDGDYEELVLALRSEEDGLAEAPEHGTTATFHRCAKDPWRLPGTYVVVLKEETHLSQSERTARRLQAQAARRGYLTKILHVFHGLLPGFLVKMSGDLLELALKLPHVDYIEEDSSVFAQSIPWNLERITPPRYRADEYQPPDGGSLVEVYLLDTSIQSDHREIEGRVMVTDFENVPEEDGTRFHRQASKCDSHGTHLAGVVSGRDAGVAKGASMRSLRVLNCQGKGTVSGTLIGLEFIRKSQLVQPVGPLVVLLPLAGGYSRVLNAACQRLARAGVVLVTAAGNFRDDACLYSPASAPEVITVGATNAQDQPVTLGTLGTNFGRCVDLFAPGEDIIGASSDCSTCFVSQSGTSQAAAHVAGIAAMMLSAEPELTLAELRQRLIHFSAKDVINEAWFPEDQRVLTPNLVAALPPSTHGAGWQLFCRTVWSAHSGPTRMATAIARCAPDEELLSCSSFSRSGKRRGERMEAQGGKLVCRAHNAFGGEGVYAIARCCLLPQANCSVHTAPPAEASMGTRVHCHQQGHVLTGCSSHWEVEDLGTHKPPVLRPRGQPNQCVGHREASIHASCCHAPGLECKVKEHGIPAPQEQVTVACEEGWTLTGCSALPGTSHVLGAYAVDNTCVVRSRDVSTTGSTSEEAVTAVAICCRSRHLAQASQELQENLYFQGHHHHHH
Sequence of PCSK9 (Homo sapiens, UniProt Q8NBP7) (Q8NBP7 31-692): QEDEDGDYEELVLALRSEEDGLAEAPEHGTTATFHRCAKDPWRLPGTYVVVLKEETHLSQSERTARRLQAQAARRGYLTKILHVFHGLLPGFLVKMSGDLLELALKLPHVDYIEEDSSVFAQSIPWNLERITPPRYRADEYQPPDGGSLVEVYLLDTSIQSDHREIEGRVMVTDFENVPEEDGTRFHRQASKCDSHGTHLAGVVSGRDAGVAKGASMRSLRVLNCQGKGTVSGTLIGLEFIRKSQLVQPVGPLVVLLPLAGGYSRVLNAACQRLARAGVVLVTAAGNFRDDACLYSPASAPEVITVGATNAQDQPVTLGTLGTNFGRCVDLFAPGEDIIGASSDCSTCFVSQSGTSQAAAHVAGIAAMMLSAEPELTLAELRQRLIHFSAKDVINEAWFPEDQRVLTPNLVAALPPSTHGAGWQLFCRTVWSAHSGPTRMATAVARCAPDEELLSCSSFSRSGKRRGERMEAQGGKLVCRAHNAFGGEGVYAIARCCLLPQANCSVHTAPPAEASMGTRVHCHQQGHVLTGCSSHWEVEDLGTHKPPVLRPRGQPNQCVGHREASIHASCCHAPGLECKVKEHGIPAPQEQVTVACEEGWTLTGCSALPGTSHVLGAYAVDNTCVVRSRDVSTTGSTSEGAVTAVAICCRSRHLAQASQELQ

Compound | IC50 (PCSK9 [1]) [µM] | Kd (PCSK9 [2]) [µM] | EC50 (PCSK9 [3]) [µM]
Cc1cnc(N[C@H]2CC[C@H](Nc3ccc(-n4cc(Cl)ccc4=O)cn3)C2)nn1 [Example 134, 5-Chloro-6′-(((1S,3S)-3-((6-methyl-1,2,4-triazin-3-yl)amino)cyclopentyl)amino)-2H-[1,3′-bipyridin]-2-one] | 0.0084 | 0.0091 | 0.5
Cn1c(=O)n(-c2ccc(N[C@H]3CC[C@H](Nc4ncc(C5CC5)nn4)C3)nc2)c2ccc(C#N)cc21 [Example 117, 1-(6-(((1S,3S)-3-((6-Cyclopropyl-1,2,4-triazin-3-yl)amino)cyclopentyl)amino)pyridin-3-yl)-3-methyl-2-oxo-2,3-dihydro-1H-benzo[d]imidazole-5-carbonitrile] | 0.001 | 0.0009 | 0.3
Cc1cnc(N[C@H]2CC[C@H](Nc3ccc(-n4cccc(C(F)(F)F)c4=O)cn3)C2)nn1 [Example 135, 6′-(((1S,3S)-3-((6-Methyl-1,2,4-triazin-3-yl)amino)cyclopentyl)amino)-3-(trifluoromethyl)-2H-[1,3′-bipyridin]-2-one] | 0.0028 | 0.0039 | 0.1
O=C(NC1COC1)c1cnc(N[C@H]2CC[C@H](Nc3ccc(-n4ccccc4=O)cn3)C2)nn1 [Example 70, N-(Oxetan-3-yl)-3-(((1S,3S)-3-((2-oxo-2H-[1,3′-bipyridin]-6′-yl)amino)cyclopentyl)amino)-1,2,4-triazine-6-carboxamide] | 0.019 | 0.021 | 0.2
O=c1c(OC(F)(F)F)cccn1-c1ccc(N[C@H]2CC[C@H](Nc3ncc(C4CC4)nn3)C2)nc1 [Example 52, 6′-(((1S,3S)-3-((6-Cyclopropyl-1,2,4-triazin-3-yl)amino)cyclopentyl)amino)-3-(trifluoromethoxy)-2H-[1,3′-bipyridin]-2-one] | 0.0023 | 0.0007 | 0.1
COc1ccc(=O)n(-c2ccc(N[C@H]3CC[C@H](Nc4ncc(C5CC5)nn4)C3)nc2)c1 [Example 65, 6′-(((1S,3S)-3-((6-Cyclopropyl-1,2,4-triazin-3-yl)amino)cyclopentyl)amino)-5-methoxy-2H-[1,3′-bipyridin]-2-one] | 0.0118 | 0.0058 | 0.5
Cc1cnc(N[C@H]2CC[C@H](Nc3ccc(-n4c(=O)n(C)c5cccnc54)cn3)C2)nn1 [Example 212, 1-Methyl-3-(6-(((1S,3S)-3-((6-methyl-1,2,4-triazin-3-yl)amino)cyclopentyl)amino)pyridin-3-yl)-1,3-dihydro-2H-imidazo[4,5-b]pyridin-2-one] | 0.0018 | 0.0017 | 0.1
O=c1c(C(F)(F)F)cccn1-c1ccc(N[C@H]2CC[C@H](Nc3ncc(C4CC4)nn3)C2)nc1 [Example 51, 6′-(((1S,3S)-3-((6-Cyclopropyl-1,2,4-triazin-3-yl)amino)cyclopentyl)amino)-3-(trifluoromethyl)-2H-[1,3′-bipyridin]-2-one] | 0.0018 | 0.0009 | 0.1
Cc1cnc(N[C@H]2CC[C@H](Nc3ccc(-n4cc(C#N)ccc4=O)cn3)C2)nn1 [Example 128, 6′-(((1S,3S)-3-((6-Methyl-1,2,4-triazin-3-yl)amino)cyclopentyl)amino)-2-oxo-2H-[1,3′-bipyridine]-5-carbonitrile] | 0.02 | 0.03 | 0.8
COc1cccn(-c2ccc(N[C@H]3CC[C@H](Nc4ncc(C5CC5)nn4)C3)nc2)c1=O [Example 64, 6′-(((1S,3S)-3-((6-Cyclopropyl-1,2,4-triazin-3-yl)amino)cyclopentyl)amino)-3-methoxy-2H-[1,3′-bipyridin]-2-one] | 0.0015 | 0.0004 | 0.2
Cn1c(=O)n(-c2ccc(N[C@H]3CC[C@H](Nc4ncc(C5CC5)nn4)C3)nc2)c2ncccc21 [Example 63, 3-(6-(((1S,3S)-3-((6-Cyclopropyl-1,2,4-triazin-3-yl)amino)cyclopentyl)amino)pyridin-3-yl)-1-methyl-1,3-dihydro-2H-imidazo[4,5-b]pyridin-2-one] |  | 0.0014 | 0.1
Cc1cnc(N[C@H]2CC[C@H](Nc3ccc(-n4ccccc4=O)cn3)C2)nn1 [Example 67, 6′-(((1S,3S)-3-((6-Methyl-1,2,4-triazin-3-yl)amino)cyclopentyl)amino)-2H-[1,3′-bipyridin]-2-one] | 0.016 | 0.017 | 0.6
Cc1cnc(N[C@H]2CC[C@H](Nc3ccc(-n4c(=O)ccc5cccnc54)cn3)C2)nn1 [Example 197, 1-(6-(((1S,3S)-3-((6-Methyl-1,2,4-triazin-3-yl)amino)cyclopentyl)amino)pyridin-3-yl)-1,8-naphthyridin-2(1H)-one] | 0.0025 | 0.0023 | 0.1
Cc1cnc(N[C@H]2CC[C@H](Nc3ccc(-n4cccc(OC(F)F)c4=O)cn3)C2)nn1 [Example 187, 3-(Difluoromethoxy)-6′-(((1S,3S)-3-((6-methyl-1,2,4-triazin-3-yl)amino)cyclopentyl)amino)-2H-[1,3′-bipyridin]-2-one] | 0.0021 | 0.0037 | 0.1
COc1ccc(=O)n(-c2ccc(N[C@H]3CC[C@H](Nc4ncc(C)nn4)C3)nc2)c1 [Example 133, 5-Methoxy-6′-(((1S,3S)-3-((6-methyl-1,2,4-triazin-3-yl)amino)cyclopentyl)amino)-2H-[1,3′-bipyridin]-2-one] | 0.017 | 0.017 | 0.4
CN1CC(=O)N(c2ccc(N[C@H]3CC[C@H](Nc4ncc(C5CC5)nn4)C3)nc2)C1=O [Example 57, 3-(6-(((1S,3S)-3-((6-Cyclopropyl-1,2,4-triazin-3-yl)amino)cyclopentyl)amino)pyridin-3-yl)-1-methylimidazolidine-2,4-dione] | 0.011 | 0.0075 | 0.5
Cc1cnc(N[C@H]2CC[C@H](Nc3ccc(-n4cccc(-c5cnn(C)c5)c4=O)cn3)C2)nn1 [Example 198, 6′-(((1S,3S)-3-((6-Methyl-1,2,4-triazin-3-yl)amino)cyclopentyl)amino)-3-(1-methyl-1H-pyrazol-4-yl)-2H-[1,3′-bipyridin]-2-one] | 0.0029 | 0.0038 | 0.1
N#Cc1cccn(-c2ccc(N[C@H]3CC[C@H](Nc4ncc(C5CC5)nn4)C3)nc2)c1=O [Example 58, 6′-(((1S,3S)-3-((6-Cyclopropyl-1,2,4-triazin-3-yl)amino)cyclopentyl)amino)-2-oxo-2H-[1,3′-bipyridine]-3-carbonitrile] | 0.0016 | 0.0022 | 0.1
Cc1cnc(N[C@H]2CC[C@H](Nc3ccc(-n4nccc(Cl)c4=O)cn3)C2)nn1 [Example 221, 4-Chloro-2-(6-(((1S,3S)-3-((6-methyl-1,2,4-triazin-3-yl)amino)cyclopentyl)amino)pyridin-3-yl)pyridazin-3(2H)-one] | 0.0016 | 0.0017 | 0.3
O=c1c(Cl)cccn1-c1ccc(N[C@H]2CC[C@H](Nc3ncc(C4CC4)nn3)C2)nc1 [Example 55, 3-Chloro-6′-(((1S,3S)-3-((6-cyclopropyl-1,2,4-triazin-3-yl)amino)cyclopentyl)amino)-2H-[1,3′-bipyridin]-2-one] | 0.001 | 0.0004 | 0.1
